The results in this text go back to ChEMBL document CHEMBL1949658, “3D-QSAR and 3D-QSSR models of negative allosteric modulators facilitate the design of a novel selective antagonist of human α4β2 neuronal nicotinic acetylcholine receptors” (Bioorg Med Chem Lett, 2012).

The target of test [1] is Neuronal acetylcholine receptor; alpha3/beta4 (Homo sapiens, UniProt P30926+P32297). Kind of test: Antagonist activity at human nAChR alpha3/beta4 receptor expressed in HEK ts201 cells assessed as calcium accumulation by fluorescence analysis. Format: functional, cell-based. Particulars: for IC50: read-out: pIC50 (converted); for pIC50: read-out: IC50.
Sequence of Neuronal acetylcholine receptor; alpha3/beta4 (P30926 whole entry): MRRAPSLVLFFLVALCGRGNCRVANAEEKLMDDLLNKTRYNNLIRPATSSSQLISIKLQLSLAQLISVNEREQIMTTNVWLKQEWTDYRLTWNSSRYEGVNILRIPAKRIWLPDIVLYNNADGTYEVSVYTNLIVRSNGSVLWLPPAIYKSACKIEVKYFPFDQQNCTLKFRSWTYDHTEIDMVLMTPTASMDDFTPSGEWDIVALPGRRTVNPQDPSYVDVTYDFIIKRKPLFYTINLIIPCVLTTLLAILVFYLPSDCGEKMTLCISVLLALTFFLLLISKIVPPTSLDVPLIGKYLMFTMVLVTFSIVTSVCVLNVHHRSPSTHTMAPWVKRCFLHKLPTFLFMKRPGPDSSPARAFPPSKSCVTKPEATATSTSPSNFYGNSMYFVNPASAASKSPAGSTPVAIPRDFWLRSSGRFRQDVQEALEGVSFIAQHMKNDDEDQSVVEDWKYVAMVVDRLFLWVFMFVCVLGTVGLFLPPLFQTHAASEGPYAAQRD
Sequence of Neuronal acetylcholine receptor; alpha3/beta4 (P32297 whole entry): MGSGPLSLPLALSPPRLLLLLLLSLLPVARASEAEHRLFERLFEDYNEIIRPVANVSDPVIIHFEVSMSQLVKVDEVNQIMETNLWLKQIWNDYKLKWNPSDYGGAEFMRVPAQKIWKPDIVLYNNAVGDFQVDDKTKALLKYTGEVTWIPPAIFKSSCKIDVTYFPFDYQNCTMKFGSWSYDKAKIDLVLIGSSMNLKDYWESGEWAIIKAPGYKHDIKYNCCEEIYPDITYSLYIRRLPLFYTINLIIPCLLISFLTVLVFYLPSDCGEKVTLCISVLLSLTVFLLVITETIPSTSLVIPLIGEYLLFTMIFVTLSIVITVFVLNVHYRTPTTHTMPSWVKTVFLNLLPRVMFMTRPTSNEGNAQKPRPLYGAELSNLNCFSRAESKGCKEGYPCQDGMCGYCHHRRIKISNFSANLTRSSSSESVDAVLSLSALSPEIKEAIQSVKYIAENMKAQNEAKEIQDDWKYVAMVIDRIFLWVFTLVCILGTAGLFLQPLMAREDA
The species named for test [2] is Homo sapiens. Nature of the test: Selectivity ratio of pIC50 for human nAChR alpha3/beta4 receptor to pIC50 for human nAChR alpha4/beta2 receptor.
Test [3] deals with Neuronal acetylcholine receptor; alpha4/beta2 (Homo sapiens, UniProt P17787+P43681). Nature of the test: Antagonist activity at human nAChR alpha4/beta2 receptor expressed in HEK ts201 cells assessed as calcium accumulation by fluorescence analysis. Format: functional, cell-based. Particulars: for IC50: read-out: pIC50 (converted); for pIC50: read-out: IC50.
Sequence of Neuronal acetylcholine receptor; alpha4/beta2 (P17787 whole entry): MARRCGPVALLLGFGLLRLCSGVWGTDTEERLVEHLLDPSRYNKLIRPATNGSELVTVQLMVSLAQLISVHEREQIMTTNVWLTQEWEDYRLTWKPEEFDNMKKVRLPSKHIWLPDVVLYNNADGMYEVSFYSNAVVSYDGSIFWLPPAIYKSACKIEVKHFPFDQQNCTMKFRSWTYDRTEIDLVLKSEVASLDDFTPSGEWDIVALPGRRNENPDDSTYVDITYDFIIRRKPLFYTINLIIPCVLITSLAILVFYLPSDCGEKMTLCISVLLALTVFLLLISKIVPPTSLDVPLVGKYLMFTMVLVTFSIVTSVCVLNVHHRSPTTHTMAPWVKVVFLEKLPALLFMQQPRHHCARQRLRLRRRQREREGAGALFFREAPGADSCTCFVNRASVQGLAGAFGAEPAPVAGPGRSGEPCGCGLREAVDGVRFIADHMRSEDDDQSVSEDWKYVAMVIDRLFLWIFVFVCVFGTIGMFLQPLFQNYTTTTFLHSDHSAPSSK
Sequence of Neuronal acetylcholine receptor; alpha4/beta2 (P43681 whole entry): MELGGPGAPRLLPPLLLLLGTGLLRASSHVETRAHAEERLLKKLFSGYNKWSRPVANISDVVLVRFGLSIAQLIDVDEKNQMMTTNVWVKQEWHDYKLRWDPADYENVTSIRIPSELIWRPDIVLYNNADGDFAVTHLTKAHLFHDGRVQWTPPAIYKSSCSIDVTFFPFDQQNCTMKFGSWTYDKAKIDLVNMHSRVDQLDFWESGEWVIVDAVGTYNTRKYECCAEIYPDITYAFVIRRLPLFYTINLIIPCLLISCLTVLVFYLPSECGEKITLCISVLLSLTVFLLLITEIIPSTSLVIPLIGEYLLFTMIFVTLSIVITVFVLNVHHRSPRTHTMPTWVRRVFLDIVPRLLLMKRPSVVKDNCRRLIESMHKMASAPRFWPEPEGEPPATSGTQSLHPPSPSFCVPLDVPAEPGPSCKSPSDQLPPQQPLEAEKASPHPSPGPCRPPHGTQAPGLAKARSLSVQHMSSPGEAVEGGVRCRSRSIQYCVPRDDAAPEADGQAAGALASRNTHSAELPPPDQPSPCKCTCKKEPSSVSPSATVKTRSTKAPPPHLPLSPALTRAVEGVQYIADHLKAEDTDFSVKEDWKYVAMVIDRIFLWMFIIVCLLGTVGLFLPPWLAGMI

The structures appear in SMILES notation. pIC50: −log10 of the molar value.

As for `Cc1ccc(OCCN2CCCC(COC(=O)c3ccccc3N3C(=O)CC(C)C3=O)C2)cc1` (stereo not given), the IC50 in test [1] was 18.6 µM; in test [3], 11.2 µM. In addition, the Ratio pIC50 in test [2] came to 0.22.

On to `CC(=O)Nc1ccccc1C(=O)OCC1CCCN(CCCc2ccccc2)C1` (stereo not given), for which the IC50 in test [1] was 4.27 µM; in test [3] it was 5.5 µM. The Ratio pIC50 in test [2] is -0.11.

As to `CC1CC(=O)N(c2ccccc2C(=O)OCC2CCCN(CCOc3ccc4ccccc4c3)C2)C1=O` (stereo not given), the IC50 was 6.76 µM in test [1] and 7.41 µM in test [3]. Moreover, the Ratio pIC50 in test [2] was -0.04.

In the case of `CCN1CC(OC(=O)c2ccccc2N2C(=O)CC(C)C2=O)C2CC1C1OC(C)(C)OC21` (stereo not given), the IC50 in test [1] was 77.6 µM; in test [3], 12 µM. Also, the Ratio pIC50 in test [2] was found to be 0.81.

Regarding `COc1ccc(OCCCCCN2CCCC(COC(=O)c3coc4ccccc4c3=O)C2)cc1` (stereo not given), the IC50 in test [3] is 10 µM.

In the case of `CC1CC(=O)N(c2ccccc2C(=O)OCC2CCCN(CCOc3cccc(-c4ccccc4)c3)C2)C1=O` (stereo not given), the IC50 is 26.9 µM in test [1] and 7.24 µM in test [3]. For the same compound, the Ratio pIC50 in test [2] was found to be 0.57.

`CC1CC(=O)N(c2ccccc2C(=O)OCC2CCCN(CCOc3cccc(Cl)c3)C2)C1=O` (stereo not given): the results for the IC50 in test [1] and in test [3] were 11.5 µM and 21.9 µM, respectively. In test [2], the Ratio pIC50 came out at 0.14.

Consider `CCN1CCCC(COC(=O)c2ccccc2N2C(=O)CC(Cc3ccccc3)C2=O)C1` (stereo not given), for which the IC50 in test [1] was 11.7 µM; in test [3], 4.47 µM. Besides, the Ratio pIC50 in test [2] worked out at 0.42.

`CC1CC(=O)N(c2ccccc2C(=O)OC[C@@H]2C[C@H](c3ccccc3)CN(CCCc3ccccc3)C2)C1=O` (stereo not given in full): the IC50 in test [3] was 5.37 µM.

For `COc1ccc(OCCCCCN2CCCC(COC(=O)c3cc(=O)c4ccccc4o3)C2)cc1` (stereo not given), in test [3], the IC50 was 10.2 µM.

Regarding `O=C(OCC1CCN(CCCc2ccccc2)CC1)c1ccccc1-c1ccccc1`, the results for the pIC50 in test [1] and in test [3] were 4.98 and 5.09, respectively. Besides, in test [2], the Ratio pIC50 was 0.11.

Take `CC(C)N1CCCC(COC(=O)c2ccccc2N2C(=O)CC(Cc3ccccc3)C2=O)C1` (stereo not given): in test [3], the IC50 was 8.91 µM.

Turning to `COc1ccc(OCCCCCN2CCCC(COC(=O)c3ccccc3-c3ccccc3)C2)cc1` (stereo not given), the IC50 in test [1] was 22.4 µM; in test [3] it was 14.5 µM.

On to `COc1cccc(OCCCCCN2CCCC(COC(=O)c3ccccc3N3C(=O)CC(C)C3=O)C2)c1OC` (stereo not given), for which the IC50 in test [3] was 8.71 µM.

In the case of `O=C(OC1CCCN(CCCc2ccccc2)C1)c1ccccc1-c1ccccc1` (single isomer, unassigned), the figures for the pIC50 in test [1] and in test [3] were 5.57 and 5.19, respectively.

On to `CC1CC(=O)N(c2ccccc2C(=O)OC2CN(CCCc3ccccc3)C3CC2C2OC(C)(C)OC23)C1=O` (stereo not given), for which, in test [1], the IC50 was 30.9 µM.

`O=C(NCC1CCCN(CCCc2ccccc2)C1)c1ccccc1-c1ccccc1` (single isomer, unassigned): the Ratio pIC50 in test [2] came out at 3.7. For the same compound, the IC50 in test [3] is 20 µM.

Take `c1ccc(-c2ccccc2COCC2CCCNC2)cc1` (stereo not given): in test [3], the IC50 was 4.17 µM.

`CC1CC(=O)N(c2ccccc2C(=O)OCC2CCCN(CCCCCCc3ccccc3)C2)C1=O` (stereo not given): in test [3], the IC50 was 29.5 µM.

On to `CC1CC(=O)N(c2ccccc2C(=O)CCC2CCCN(CCCCOc3ccc(C(F)(F)F)cc3)C2)C1=O` (stereo not given), for which, in test [3], the IC50 is 7.08 µM.

Turning to `CC(C)N1CC(OC(=O)c2ccccc2-c2ccccc2)C2CC1C1OC(C)(C)OC21` (stereo not given), the IC50 in test [3] was 9.55 µM.

Regarding `CC1CC(=O)N(c2ccccc2C(=O)OCC2CCCN(CCCCOc3ccccc3)C2)C1=O` (stereo not given), in test [3], the IC50 is 1.7 µM.

For `O=C(OCC1CCCN(CCCc2ccccc2)C1)c1ccccc1-c1cccc2ccccc12` (stereo not given), the Ratio pIC50 in test [2] turned out to be 0.73.

As to `COc1ccc(OCCCCCN2CCCC(COC(=O)c3ccccc3N3C(=O)CC(C)C3=O)C2)cc1` (stereo not given), in test [3], the IC50 was 14.5 µM.

In the case of `CC1CC(=O)N(c2ccccc2C(=O)OC2CN(C(C)C)C3CC2C2OC(C)(C)OC23)C1=O` (stereo not given), the IC50 in test [3] was 7.59 µM.

In the case of `CC1CC(=O)N(c2ccccc2C(=O)OCC2CCCN(CCCCCOc3ccccc3)C2)C1=O` (stereo not given), the IC50 in test [3] is 17 µM.

As usually defined, the pIC50 is the negative decadic logarithm of the IC50, by convention in mol/L.
